Measured values as given in patent US20190352644A1, “INHIBITION OF MITOCHONDRIAL HYPOXIC STRESS INDUCED RNA EDITING BY APOBEC3G CYTIDINE DEAMINASE” (Health Research, Inc., priority 2015, published 2019).

Tests used:
HuT78 cells = assay: TM7SF3 C>U RNA editing in HuT78 cells treated with mitochondrial inhibitors or thapsigargin; type: cell-based, human; settings: HuT78, normoxia; for RNA editing level (TM7SF3): 0.5×10^6 cells per 500 μl, inhibitor 1 μM
Source text: We tested the effect of inhibitors of mitochondrial complex II by atpenin A5 (AtA5) and of the complex III by myxothiazol (MXT) on RNA editing in HuT78 cells cultured in normoxia. Additionally, to test whether endoplasmic reticulum (ER) stress can also induce RNA editing, we treated the cells with Thapsigargin (Tg). Tg is considered to induce ER stress by raising intracellular calcium levels and lowers the ER calcium levels by specifically inhibiting the endoplasmic reticulum Ca^++ ATPase, resulting in the accumulation of unfolded proteins and an increased accumulation eIF-2α phosphorylated at Ser 51 (FIGS. 33c and 35b). To test the effect of hypoxic stress alone on HuT78 cells, we reduced the cell density to avoid cellular crowding and cultured the cells at an intermediate density of 0.5×10^6 cells per 500 μl per well in 24 well plates with or without the chemical inhibitors in normoxia, and hypoxia alone for one or two days. Under these conditions, we determined RNA editing level and the stabilization of HIF-1α in these cells. […] RNA editing levels increased to approximately 30% in cells treated with MXT, AtA5 or hypoxia alone on day 2. […] Furthermore, HIF-1α was stabilized only when the cells were subjected to hypoxia but not in normoxia in the presence or absence of the mitochondrial inhibitors (FIG. 32c).
(§1) For testing the mitochondrial inhibitors, HuT78 and NK-92 cells were cultured at […] cells per 0.5 ml in 24 well plates in normoxia with or without AtA5 and MXT or hypoxia alone for 2 days at 37° C.
(§2) Human IFN-γ was obtained from PeproTech and used at a concentration of 50 ng/ml. AtA5 (Cayman chemical #11898) and MXT (Sigma Aldrich #T5580) was used at a concentration of 1 μM.
(§3) Total RNA was isolated and reverse transcribed to generate cDNAs. DNA primers used for PCR were obtained from Integrated DNA Technologies and are noted in Table 6. Primers used for PCR of cDNA templates were designed such that the amplicons spanned multiple exons. […] To quantify RNA editing level, the major and minor chromatogram peak heights at putative edited nucleotides were quantified with Sequencher 5.0/5.1 software (Gene Codes, MI). […] For quantitative PCR to assess APOBEC3G and APOBEC3F gene expression, reactions using LightCycler™ 480 Probes Master and SYBR™ Green I dye were performed on a LightCycler™ 480 System (Roche). Quantification cycle (Cq) values were calculated by the instrument software using the maximum second derivative method, and the mean Cq value of duplicate PCR reactions was used for analysis.

NK-92 cells = assay: TM7SF3 C>U RNA editing in NK-92 cells treated with mitochondrial inhibitors; type: cell-based, human; settings: NK-92, normoxia, intermediate density, 24 well plates, inhibitor 1 μM, 2 days
Experimental: We treated NK-92 cells with normoxia with or without the mitochondrial inhibitors (AtA5 or MXT) or hypoxia alone at intermediate density in 24 well plates for 2 days. […] The reason behind the difference in hypoxia induced RNA editing level of HuT78 and NK-92 cells may be due to metabolic differences between the two cell lines.
as §1, §2
as §3, with “cDNAs.” for “cDNAs. DNA primers used for PCR were obtained from Integrated DNA Technologies and are noted in Table 6. Primers used for PCR of cDNA templates were designed such that the amplicons spanned multiple exons.”

APOBEC3A = molecular target: T1, APOBEC3A (Homo sapiens, UniProt P31941); assay: In vitro SDHB RNA editing assay with purified APOBEC3A; type: biochemical; settings: chelation of zinc with 10 μM 1,10-phenanthroline, 2 hours at 37° C
T1 construct: made in house; host or cells: Rosetta 2(DE3)pLysS E. coli; pET21 construct from Dr. Jinwoo Ahn
T1 sequence (P31941 whole entry): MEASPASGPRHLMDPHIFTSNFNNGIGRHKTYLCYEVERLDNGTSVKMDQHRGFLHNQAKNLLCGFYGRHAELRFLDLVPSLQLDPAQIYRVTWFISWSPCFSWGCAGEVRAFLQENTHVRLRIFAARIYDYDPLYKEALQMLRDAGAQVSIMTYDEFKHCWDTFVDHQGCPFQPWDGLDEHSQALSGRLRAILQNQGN
Experimental: Rosetta™ 2(DE3)pLysS E. coli (EMD Millipore®) transformed with a bacterial expression construct for C-His6-tagged APOBEC3A and grown in Luria broth at 37° C. were induced for expression of the recombinant protein with 0.3 mM isopropyl β-D-1-thiogalactopyranoside (IPTG) and cultured overnight at 18° C. Harvested cells were lysed with a French pressure cell (American Instrument Corporation®, Hartland, Wis.) and Ni-NTA His.Bind Resin™ (EMD Millipore®) was used as per manufacturer's instructions to purify APOBEC3A protein from the lysates by affinity chromatography. Isolated protein was concentrated using an Amicon™ Ultra-4 Centrifugal Filter Unit with Ultracel-3 membrane (EMD Millipore®; nominal molecular weight limit of 3 kDa). The concentrated protein was stored in 25 mM Tris (pH 8.0) with 50 mM NaCl, 1 mM DTT, 5% v/v glycerol, and 0.02% w/v sodium azide.
Whole cell lysates of 293T transfectants were prepared using lysis buffer containing 0.2% Surfact-Amps™ NP-40 (Thermo Fisher®), 30 mM 4-(2-hydroxyethyl)-1-piperazine-ethane-sulfonic acid (HEPES; pH 7.5), 100 mM KCl, 25 mM NaCl, 1.5 mM MgCl2, 1 mM DTT, and 0.5× Halt™ protease and phosphatase inhibitor cocktail, and stored with 10% v/v glycerol at −80° C. […]

For `COc1[nH]c(=O)c(C(=O)[C@@H](C)C[C@H](C)[C@@H](Cl)CCl)c(O)c1OC` [AtA5, atpenin A5], which “RNA editing level (TM7SF3)” value (HuT78 cells; day 2) is on record?
Its value is “approximately 30%”.

And the “RNA editing level (TM7SF3)” value (NK-92 cells)?
Its value is roughly 25%.

`c1cnc2c(c1)ccc1cccnc12` [1,10-phenanthroline] was tested. Which “c.136C>U editing of SDHB RNA by His6-tagged APOBEC3A” value (APOBEC3A) did it give?
The value was “abolished the editing”.

Which “RNA editing level (TM7SF3)” value (HuT78 cells; day 1) does the source give for `CO/C(=C/C(N)=O)[C@H](C)[C@H](/C=C/c1csc(-c2csc([C@@H](C)/C=C/C=C/C(C)C)n2)n1)OC` [MXT, myxothiazol] here?
The value was “approximately 10%”.

And the “RNA editing level (TM7SF3)” value (HuT78 cells; day 2)?
Its value is “approximately 30%”.

What about the “RNA editing level (TM7SF3)” value (NK-92 cells) of the same compound?
Its value is roughly 25%.

For `C/C=C(/C)C(=O)O[C@H]1C(C)=C2[C@H]([C@@H]1OC(=O)CCCCCCC)[C@@](C)(OC(C)=O)C[C@H](OC(=O)CCC)[C@@]1(O)[C@H]2OC(=O)[C@@]1(C)O` [Tg, Thapsigargin], which “induction of RNA editing (TM7SF3)” value (HuT78 cells; one or two days) is on record?
Its value is “did not induce RNA editing”.
